From ChEMBL document CHEMBL4627331 (Bioorg Med Chem Lett, 2020)

Tests used:
[1] = Selectivity index, ratio of IC50 for equine BuchE using butyrylthiocholine as substrate by Ellman's method to IC50 for human BuchE
[2] = Cytotoxicity against human SH-SY5Y cells by MTT assay; type: cell-based
Cholinesterase [3] = target: Cholinesterase (Homo sapiens, UniProt P06276); assay: Inhibition of human BuchE
[4] = target: acetylcholinesterase (AChE) (Electrophorus electricus, UniProt O42275); assay: Inhibition of electric eel AchE at 100 uM using acetylthiocholine as substrate by Ellman's method relative to control; settings: electric eel AChE enzyme, probe acetylthiocholine
Acetylcholinesterase [5] = target: Acetylcholinesterase (Homo sapiens, UniProt P22303); assay: Inhibition of human AchE
Acetylcholinesterase [6] = target: Acetylcholinesterase (Electrophorus electricus, UniProt O42275); assay: Inhibition of electric eel AchE using acetylthiocholine as substrate by Ellman's method
Cholinesterase [7] = target: Cholinesterase (Equus caballus, UniProt P81908)
Description: Inhibition of equine BuchE using butyrylthiocholine as substrate by Ellman's method

[8] = target: acetylcholinesterase (AChE) (Homo sapiens, UniProt P22303); assay: Inhibition of human AchE at 100 uM relative to control; settings: human AChE enzyme
acetylcholinesterase (AChE) (Homo sapiens, UniProt P22303), sequence (P22303 whole entry): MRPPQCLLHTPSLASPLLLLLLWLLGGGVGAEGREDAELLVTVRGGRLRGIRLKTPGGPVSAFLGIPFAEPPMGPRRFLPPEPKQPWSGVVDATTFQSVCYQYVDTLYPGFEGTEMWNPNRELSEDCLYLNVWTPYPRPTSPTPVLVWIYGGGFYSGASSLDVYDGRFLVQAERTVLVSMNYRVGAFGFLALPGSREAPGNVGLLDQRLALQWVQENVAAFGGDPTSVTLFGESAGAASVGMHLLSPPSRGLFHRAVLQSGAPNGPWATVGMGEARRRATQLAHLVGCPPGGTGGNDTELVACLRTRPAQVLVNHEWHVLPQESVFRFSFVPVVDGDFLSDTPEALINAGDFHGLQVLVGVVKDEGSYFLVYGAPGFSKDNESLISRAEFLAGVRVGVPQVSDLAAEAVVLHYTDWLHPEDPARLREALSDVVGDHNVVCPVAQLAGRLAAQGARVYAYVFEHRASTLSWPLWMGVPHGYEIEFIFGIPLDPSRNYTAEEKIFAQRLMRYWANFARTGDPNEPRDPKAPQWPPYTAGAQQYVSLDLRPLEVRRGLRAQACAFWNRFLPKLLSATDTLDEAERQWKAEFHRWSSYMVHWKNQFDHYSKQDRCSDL

acetylcholinesterase (AChE) (Electrophorus electricus, UniProt O42275), sequence (O42275 whole entry): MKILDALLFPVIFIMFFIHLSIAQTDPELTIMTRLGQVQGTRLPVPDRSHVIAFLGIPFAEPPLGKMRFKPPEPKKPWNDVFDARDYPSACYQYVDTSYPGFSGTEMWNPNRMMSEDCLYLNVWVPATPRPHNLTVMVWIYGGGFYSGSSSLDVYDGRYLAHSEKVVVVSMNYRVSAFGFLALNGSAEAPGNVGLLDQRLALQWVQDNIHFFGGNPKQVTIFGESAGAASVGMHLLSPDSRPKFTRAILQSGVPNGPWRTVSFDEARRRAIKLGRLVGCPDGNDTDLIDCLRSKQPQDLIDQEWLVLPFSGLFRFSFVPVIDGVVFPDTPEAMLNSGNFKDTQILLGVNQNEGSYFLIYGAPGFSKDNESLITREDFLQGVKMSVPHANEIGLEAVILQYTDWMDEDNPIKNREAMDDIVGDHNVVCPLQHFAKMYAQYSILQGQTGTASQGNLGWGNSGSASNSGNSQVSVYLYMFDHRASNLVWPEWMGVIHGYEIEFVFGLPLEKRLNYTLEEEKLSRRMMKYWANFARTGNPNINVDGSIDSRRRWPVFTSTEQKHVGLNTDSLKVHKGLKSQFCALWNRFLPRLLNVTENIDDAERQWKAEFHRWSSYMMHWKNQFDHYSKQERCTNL
Acetylcholinesterase (Electrophorus electricus, UniProt O42275), sequence (O42275 whole entry): as above
Cholinesterase (Equus caballus, UniProt P81908), sequence (P81908 whole entry): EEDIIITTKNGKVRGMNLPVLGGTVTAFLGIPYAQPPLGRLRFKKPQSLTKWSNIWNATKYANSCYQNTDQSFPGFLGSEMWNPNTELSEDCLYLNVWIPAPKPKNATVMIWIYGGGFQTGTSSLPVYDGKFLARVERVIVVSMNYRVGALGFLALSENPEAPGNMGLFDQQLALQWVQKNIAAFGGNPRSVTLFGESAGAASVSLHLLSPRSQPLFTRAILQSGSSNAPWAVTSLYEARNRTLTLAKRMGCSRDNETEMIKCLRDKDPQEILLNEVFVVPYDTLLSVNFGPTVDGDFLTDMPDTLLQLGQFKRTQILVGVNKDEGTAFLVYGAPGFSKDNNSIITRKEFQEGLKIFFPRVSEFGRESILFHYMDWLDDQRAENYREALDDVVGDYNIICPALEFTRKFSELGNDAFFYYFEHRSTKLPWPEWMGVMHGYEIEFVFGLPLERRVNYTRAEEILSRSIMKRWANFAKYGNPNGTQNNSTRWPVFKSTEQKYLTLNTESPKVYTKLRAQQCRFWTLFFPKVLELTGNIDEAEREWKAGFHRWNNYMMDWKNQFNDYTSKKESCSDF
Cholinesterase (Homo sapiens, UniProt P06276), sequence (P06276 whole entry): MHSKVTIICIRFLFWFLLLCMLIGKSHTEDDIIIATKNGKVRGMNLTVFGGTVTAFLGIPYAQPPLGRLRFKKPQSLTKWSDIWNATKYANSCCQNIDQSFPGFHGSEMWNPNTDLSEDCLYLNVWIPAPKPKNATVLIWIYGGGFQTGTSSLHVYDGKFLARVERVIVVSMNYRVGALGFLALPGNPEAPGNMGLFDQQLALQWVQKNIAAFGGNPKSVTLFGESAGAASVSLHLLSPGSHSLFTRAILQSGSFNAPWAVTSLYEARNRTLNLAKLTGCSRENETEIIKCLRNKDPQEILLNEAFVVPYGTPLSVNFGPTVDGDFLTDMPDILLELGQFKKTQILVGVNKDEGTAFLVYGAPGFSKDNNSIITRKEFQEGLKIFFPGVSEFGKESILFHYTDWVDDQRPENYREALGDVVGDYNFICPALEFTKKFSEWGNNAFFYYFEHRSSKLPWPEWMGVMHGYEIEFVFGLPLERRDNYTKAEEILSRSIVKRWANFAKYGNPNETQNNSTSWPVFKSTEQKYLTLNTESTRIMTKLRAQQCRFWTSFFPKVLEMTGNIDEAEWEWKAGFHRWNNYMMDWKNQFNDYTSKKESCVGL
Acetylcholinesterase (Homo sapiens, UniProt P22303), sequence (P22303 whole entry): as the sequence (P22303 whole entry) above

Compound | Ratio IC50 [1] | CC50 [2] [µM] | IC50 (Cholinesterase [3]) [µM] | inhibition at 100 µM [4] [%] | IC50 (Acetylcholinesterase [5]) [µM] | IC50 (Acetylcholinesterase [6]) [µM] | IC50 (Cholinesterase [7]) [µM] | inhibition at 100 µM [8] [%]
COc1cc(C2C3=C(CCCC3=O)NC3=C2C(=O)CCC3)ccc1OCc1ccc(F)cc1 | 2.5 | ≥ 100 | 0.098 | 27 | 125 | > 100 | 0.242 | –
COc1cc(C2C3=C(CCCC3=O)NC3=C2C(=O)CCC3)ccc1OS(=O)(=O)c1ccc(C)cc1 | – | – | – | 15 | – | > 100 | 0.959 | –
COc1cc(C2C3=C(CCCC3=O)N(C)C3=C2C(=O)CCC3)ccc1OCc1ccc(F)cc1 | – | – | – | 33 | – | > 100 | 2.44 | –
O=C1CCCC2=C1C(c1ccc(OCc3ccccc3)c(Br)c1)C1=C(CCCC1=O)N2 | – | – | – | 14 | – | > 100 | 0.633 | –
O=C1CCCC2=C1C(c1ccc(OCc3cccc(F)c3)c(Br)c1)C1=C(CCCC1=O)N2 | 2.5 | – | 0.142 | 22 | > 100 | > 100 | 0.388 | 39
CCOc1cc(C2C3=C(CCCC3=O)NC3=C2C(=O)CCC3)ccc1OCc1ccccc1 | – | – | – | 19 | – | > 100 | 0.752 | –
CN1C2=C(C(=O)CCC2)C(c2ccc(OCc3ccc(Cl)cc3)c(Cl)c2)C2=C1CCCC2=O | – | – | – | 23 | – | > 100 | 1.66 | –
O=C1CCCC2=C1C(c1ccc(OCc3ccccc3)cc1)C1=C(CCCC1=O)N2 | – | – | – | 24 | – | > 100 | 6.01 | –
